Experimental data taken from patent publication US20210299150A1, “AP39 IMPACT ON MITOCHONDRIA, METABOLISM, GENE TRANSCRIPTION REGULATION, CARDIOTOXICITY PROTECTION AND CANCER TREATMENT” (priority 2020, published 2021).

Assays:
[1] = system: SK-N-BE(2) neuroblastoma cell line; assay: Cell viability (images, MTT) of SK-N-BE(2) neuroblastoma cell line; type: cell-based, human
Description: (§1) Methods for cell viability: Cells were plated in 96 wells/6 wells cell culture plates. After 24 hrs of plating, the treatments (added in the growth medium) were conducted. The following assays were performed after 24 hrs of the treatments (day 2). (FIGS. 15A, 17-20, 24-27)
(§2) MTT assay methods. For the MTT assay, […] of 5 mg/ml MTT-tetrazolium salts in PBS was added to each well containing the growth medium. After 3 hours of incubation, the medium was removed and the formazan crystals were dissolved by adding DMSO. The absorption of the formazan solution was measured using a spectrophotometer at a wavelength of 570 nm. FIGS. 15B, 21-22.
The SK-N-BE(2) neuroblastoma cell line was exposed to control, AP39 (AP) at 40 or 60 μM, Doxorubicin at 2.5 or 20 μM, thiolactate at 10 mM, AP39 and Doxorubicin, AP39 and thiolactate, or Doxorubicin and Thiolactate. […] FIGS. 17, 21, 24-25.

AMPK, Opa1 = assay: Western blot of AMPK activation and Opa1 isoforms; type: cell-based; conditions: after AP39 treatment
From the text: AP39 enhanced AMPK activation and produced shorter isoform of Opa1, i.e. no longer isoform of Opa1. Note AMPK substrate ACC phosphorylation
Mitochondrial energy efficiency is regulated through accumulation of the shorter form of Opa1 after AP39 treatment. […] Thus, AP39 treatment led to mitochondrial fission, better quality control through increased mitophagy (increased AMPK activation) and energetic efficiency (short form of Opa1), which were all needed to eliminate Dox damaged mitochondria and to halt the functional decline. Apart from its role in mitophagy and quality control, AMPK activation also induces transcription of nuclear encoded mitochondrial resident proteins.

MCF7 breast cancer cells = assay: Cell viability (MTT, crystal violet) of MCF7 breast cancer cells; type: cell-based
Description: as §1, §2
(§3) Crystal Violet (CV) assay. For the CV Staining assay, cells were stained with 0.5% crystal violet in 30% ethanol for 10 minutes at room temperature after removal of the medium. The cells were lysed in a 1% SDS (sodium dodecyl sulfate) solution. The absorbance of the solution was measured using a spectrophotometer at a wavelength of 595 nm. FIG. 27.
MCF7 breast cancer cells were exposed to control, AP39 (AP) at 40 or 60 μM, Doxorubicin at 2.5 or 20 μM, thiolactate at 10 mM, AP39 and Doxorubicin, AP39 and thiolactate, or Doxorubicin and Thiolactate. […] FIGS. 26-27.

[2] = system: Myc/Max-regulated transcripts; assay: RNAseq analysis in H9C2 cell line; type: cell-based, Rat
Description: The coverage among groups are indicated.
Next, to interrogate mechanisms of AP39 protection against DIC, RNAseq analysis was performed. There was sufficient coverage of the whole transcriptome among the groups (FIG. 8A).

H9C2 cells [3] = assay: Mitochondrial H2S levels (AzMAC) and morphology (mitotracker Red) in H9C2 cells; type: cell-based, Rat
From the text: Note that white arrow heads and yellow arrows compare and contrast no-H2S: fusion and H2S-presence: fission scenarios in the same image AP39 treatment lane.
Mitochondrial fission was correlated with H2S levels. To investigate the impact of Dox on mitochondrial biogenesis and mitochondrial H2S levels, H9C2 cells were used in combination with H2S sensitive dye AzMAC and mitotracker Red dye as reported previously^8. […] Further, H2S levels (yellow arrows) highly correlated with a dotted appearance of mitochondria, implying that H2S causes mitochondrial fission, which is a prerequisite for eliminating damaged mitochondria^49.

H1299 lung cancer cells = assay: Cell viability of H1299 lung cancer cells; type: cell-based
Description: as §1, §2
H1299 lung cancer cells were exposed to control, AP39 (AP) at 40 or 60 μM, Doxorubicin at 2.5 or 20 μM, thiolactate at 10 mM, AP39 and Doxorubicin, AP39 and thiolactate, or Doxorubicin and Thiolactate. […] FIGS. 20-22.

hiPSC-CMs = assay: DIC in hiPSC-CMs (Annexin V, MitoSox Red); type: cell-based, human
[4] = 13C-glucose isotope tracing and GC-MS metabolite quantification; type: cell-based
Description: Stable isotope (13C glucose) tracer studies. Heatmap.
To this end, 13C-glucose flux/isotope tracing and quantified metabolites through GC-MS were examined at 16 hrs and 24 hrs after the treatments. Glucose, glutamine and lactate were also measured in supernatants at these time points. […] With the exception of glycolytic metabolites, the remaining metabolic pathways (poor labeling) were non-operational after Dox treatment (FIG. 10A).
When considered AP39-mediated activation of AMPK, H2S is selectively halting energy consuming anabolic pathways, such as protein synthesis (also, lipid, AMPK inhibits […], a rate limiting lipid synthesizing enzyme, FIGS. 7A and B), as observed before^41, thus leading to accumulation of amino acids and is enhancing TCA cycle through AMPK activation. The net result is better energy management with AP39/H2S treatment.

H9C2 cells [5] = assay: Crystal violet staining of H9C2 cells, Dox toxicity; type: cell-based, Rat
Description: AP39 treatment also ameliorated Dox toxicity in a model of Rat cardiomyoblast cell line, H9C2. […] There was a narrow window of protection, as 30 μM and 50 μm doses were not as strong as the 40 μM dose (FIGS. 5A and B) in conferring protection. […] Note that Dox caused an apoptotic phenotype in correlation with ROS levels (FIG. 5F, Dox lane). This in vitro AP39 protection is modest when compared to the in vivo scenario. This difference may be due to rapid clearance of toxic metabolites (for instance, higher lactate production, FIG. 10D) and better oxygen supply (AP39 stimulated OCR, FIG. 7C) in vivo and lack of such sophistication in vitro.
as §3

[6] = system: 786-O cells renal cancer cells; assay: Cell viability of 786-O renal cancer cells; type: cell-based
Description: as §1, §2
786-O cells renal cancer cells were exposed to control, AP39 (AP) at 40 or 60 μM, Doxorubicin at 2.5 or 20 μM, thiolactate at 10 mM, AP39 and Doxorubicin, AP39 and thiolactate, or Doxorubicin and Thiolactate. […] FIGS. 18 and 21.

[7] = AP39 40 or 60 μM, thiolactate 10 mM, 24 hrs
[8] = combination with Doxorubicin 2.5 μM

O=C(CCCCCCCCC[P+](c1ccccc1)(c1ccccc1)c1ccccc1)Oc1ccc(-c2cc(=S)ss2)cc1.[Br-] [AP39]
cell killing, agent alone [1, 7]: able to kill SK-N-BE(2) cells
potency of low doses of Doxorubicin [1, 8]: able to increase the potency of low doses of Doxorubicin
reduction of Dox IC value by AP39 ([1]; vs original IC70): ~8 fold
AMPK activation (AMPK, Opa1): potent AMPK activation
Opa1 isoforms (Opa1-S, Opa1-L) (AMPK, Opa1): elevated amounts of the short form of Opa1 (Opa1-S) at the expense of long form (Opa1-L)
cell killing, agent alone (MCF7 breast cancer cells; [7]): able to kill breast cancer cells
potency of low doses of Doxorubicin (MCF7 breast cancer cells; [8]): able to increase the potency of low doses of Doxorubicin
abnormal transcriptional changes induced after Dox treatment, global level (RNAseq) ([2]; H9C2, AP39+Dox): significantly reversed abnormal transcriptional changes
Myc transcription ([2]; H9C2, AP39 with Dox): restored Myc transcription
Dox-mediated mitochondrial fusion (H9C2 cells [3]; H9C2, AP39 with Dox): reversed after AP39 treatment
mitochondrial H2S levels (AzMAC) (H9C2 cells [3]; H9C2, single agent vs control): H2S production enhancement
mitochondrial morphology (fission / fusion) (H9C2 cells [3]; H9C2, single agent vs control): increased mitochondrial fission
cell killing, agent alone (H1299 lung cancer cells; [7]): able to kill lung cancer cells
potency of low doses of Doxorubicin (H1299 lung cancer cells; [8]): able to increase the potency of low doses of Doxorubicin
DIC in hiPSC-CMs (hiPSC-CMs; 4 μM AP39 with 7.5 μM Dox, 48 hrs): attenuated DIC
tolerance of hiPSC-CMs to AP39 (hiPSC-CMs; 40 μM AP39, compared with H9C2 cells): greater susceptibility
level of apoptosis (Annexin V) and mitochondrial ROS (MitoSox Red) (hiPSC-CMs; hiPSC-CMs, AP39 with Dox): attenuated with AP39 treatment
Serine and glycine 13C labeling ([4]; 16 hrs and 24 hrs): suppressed
accumulation of TCA metabolites during Dox treatment ([4]; AP39 with Dox): attenuated accumulation of TCA metabolites
amino acid accumulations during Dox treatment ([4]; AP39 with Dox): not effective in preventing many amino acid accumulations
13C labeling of TCA cycle metabolites (citrate, malate, alpha-ketoglutarate, fumarate) ([4]; AP39 with or without Dox, 16 hrs and 24 hrs): highly labeled
protection against Dox toxicity, crystal violet staining (H9C2 cells [5]; H9C2, AP39 with Dox): significant protection
AP39 dose conferring strongest protection (30 and 50 not as strong) (H9C2 cells [5]; H9C2, crystal violet, with Dox): 40 µM
cell killing, agent alone [6, 7]: able to kill renal cancer cells
potency of low doses of Doxorubicin [6, 8]: able to increase the potency of low doses of Doxorubicin
